Experimental data: the supplement of paper PMC11451515

Legend:
Settings in all cases: 48 h
SEM cells [1] = assay: cell viability relative to DMSO control; higher = less cytotoxic
In short: (§1)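 Viability, reported as a per-plate percentage of DMSO wells with cell-free wells as background, came from CellTiter-Glo One luminescence. Reading took place after 48 h at 37°C. Before that, NOMO1 or SEM (500 cells/well) or P12-Ichikawa (1000 cells/well) leukemia cells, adapted for at least four passages in each medium, were seeded in 1536-well plates (5 μl) and pin-dosed with library compounds in DMSO, 47 μM to 0.79 nM over 11 threefold points.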

NOMO1 [2] = assay: AUC of viability dose-response curve (% viability x log10 dose units); higher = less sensitive
In short: (§2)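 Viability of medium-adapted leukemia cells was measured by CellTiter-Glo One luminescence after 48 h at 37°C with library compounds in DMSO. Doses were 11 threefold steps from 47 μM to 0.79 nM, in 1536-well plates at 500 or 1000 cells/well. Signals were normalised per plate to DMSO and cell-free wells and fitted with a four-parameter log-logistic model on log10 dose. Area under the curve was integrated by trapezoidal rule, with curves exceeding full viability scaled and failed quality-control curves removed.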

SEM cells [3] = assay: as above
In short: as §2

P12-Ichikawa [4] = assay: as above
In short: as §2

NOMO1 [5] = assay: cell viability relative to DMSO control; higher = less cytotoxic
In short: as §1

P12-Ichikawa [6] = assay: as above
In short: as §1

[7] = HPLM + 10% dialyzed FBS, 0.000781 µM
[8] = HPLM + 10% dialyzed FBS, 0.00234 µM
[9] = HPLM + 10% dialyzed FBS, 0.00702 µM
[10] = HPLM + 10% dialyzed FBS, 0.0211 µM
[11] = HPLM + 10% dialyzed FBS, 0.0632 µM
[12] = HPLM + 10% dialyzed FBS, 0.19 µM
[13] = HPLM + 10% dialyzed FBS, 0.569 µM
[14] = HPLM + 10% dialyzed FBS, 1.71 µM
[15] = HPLM + 10% dialyzed FBS, 5.12 µM
[16] = HPLM + 10% dialyzed FBS, 15.4 µM
[17] = HPLM + 10% dialyzed FBS, 46.1 µM
[18] = RPMI 5 mM glucose + 10% FBS, 0.000781 µM
[19] = RPMI 5 mM glucose + 10% FBS, 0.00234 µM
[20] = RPMI 5 mM glucose + 10% FBS, 0.00702 µM
[21] = RPMI 5 mM glucose + 10% FBS, 0.0211 µM
[22] = RPMI 5 mM glucose + 10% FBS, 0.0632 µM
[23] = RPMI 5 mM glucose + 10% FBS, 0.19 µM
[24] = RPMI 5 mM glucose + 10% FBS, 0.569 µM
[25] = RPMI 5 mM glucose + 10% FBS, 1.71 µM
[26] = RPMI 5 mM glucose + 10% FBS, 5.12 µM
[27] = RPMI 5 mM glucose + 10% FBS, 15.4 µM
[28] = RPMI 5 mM glucose + 10% FBS, 46.1 µM
[29] = RPMI 5 mM glucose + 10% dialyzed FBS
[30] = RPMI 5 mM glucose + 10% dialyzed FBS, 0.000781 µM
[31] = RPMI 5 mM glucose + 10% dialyzed FBS, 0.00234 µM
[32] = RPMI 5 mM glucose + 10% dialyzed FBS, 0.00702 µM
[33] = RPMI 5 mM glucose + 10% dialyzed FBS, 0.0211 µM
[34] = RPMI 5 mM glucose + 10% dialyzed FBS, 0.0632 µM
[35] = RPMI 5 mM glucose + 10% dialyzed FBS, 0.19 µM
[36] = RPMI 5 mM glucose + 10% dialyzed FBS, 0.569 µM
[37] = RPMI 5 mM glucose + 10% dialyzed FBS, 1.71 µM
[38] = RPMI 5 mM glucose + 10% dialyzed FBS, 5.12 µM
[39] = RPMI 5 mM glucose + 10% dialyzed FBS, 15.4 µM
[40] = RPMI 5 mM glucose + 10% dialyzed FBS, 46.1 µM

COC(=O)Nc1nc2cc(C(=O)c3ccccc3)ccc2[nH]1
cell viability (SEM cells [1]; [7]): 115% | cell viability (SEM cells [1]; [8]): 124% | cell viability (SEM cells [1]; [9]): 130% | cell viability (SEM cells [1]; [10]): 126% | cell viability (SEM cells [1]; [11]): 100% | cell viability (SEM cells [1]; [12]): 24.4% | cell viability (SEM cells [1]; [13]): 69.6% | cell viability (SEM cells [1]; [14]): 128% | cell viability (SEM cells [1]; [15]): 26.6% | cell viability (SEM cells [1]; [16]): 24.1% | cell viability (SEM cells [1]; [17]): 24.1% | cell viability (SEM cells [1]; [18]): 120% | cell viability (SEM cells [1]; [19]): 125% | cell viability (SEM cells [1]; [20]): 125% | cell viability (SEM cells [1]; [21]): 122% | cell viability (SEM cells [1]; [22]): 96.4% | cell viability (SEM cells [1]; [23]): 18% | cell viability (SEM cells [1]; [24]): 59.3% | cell viability (SEM cells [1]; [25]): 86.8% | cell viability (SEM cells [1]; [26]): 22.6% | cell viability (SEM cells [1]; [27]): 23.4% | cell viability (SEM cells [1]; [28]): 19.2% | AUC of viability dose-response curve (NOMO1 [2]; HPLM + 10% dialyzed FBS): 401 | AUC of viability dose-response curve (NOMO1 [2]; RPMI 5 mM glucose + 10% FBS): 389 | AUC of viability dose-response curve (NOMO1 [2]; [29]): 397 | AUC of viability dose-response curve (SEM cells [3]; HPLM + 10% dialyzed FBS): 303 | AUC of viability dose-response curve (SEM cells [3]; RPMI 5 mM glucose + 10% FBS): 286 | AUC of viability dose-response curve (SEM cells [3]; [29]): 291

O=C1NC(=O)/C(=C\c2ccc(-c3ccc(F)cc3)o2)S1
AUC of viability dose-response curve (NOMO1 [2]; HPLM + 10% dialyzed FBS): 415 | AUC of viability dose-response curve (NOMO1 [2]; RPMI 5 mM glucose + 10% FBS): 462 | AUC of viability dose-response curve (NOMO1 [2]; [29]): 444 | AUC of viability dose-response curve (P12-Ichikawa [4]; HPLM + 10% dialyzed FBS): 436 | AUC of viability dose-response curve (P12-Ichikawa [4]; RPMI 5 mM glucose + 10% FBS): 445 | AUC of viability dose-response curve (P12-Ichikawa [4]; [29]): 455 | AUC of viability dose-response curve (SEM cells [3]; HPLM + 10% dialyzed FBS): 455 | AUC of viability dose-response curve (SEM cells [3]; RPMI 5 mM glucose + 10% FBS): 462 | AUC of viability dose-response curve (SEM cells [3]; [29]): 457

CC(C)c1noc(N2CCC(COc3ccc(-c4ccc([S+](C)(=O)[O-])cc4)nc3)CC2)n1
cell viability (NOMO1 [5]; [7]): 122% | cell viability (NOMO1 [5]; [8]): 104% | cell viability (NOMO1 [5]; [9]): 117% | cell viability (NOMO1 [5]; [10]): 103% | cell viability (NOMO1 [5]; [11]): 122% | cell viability (NOMO1 [5]; [12]): 108% | cell viability (NOMO1 [5]; [13]): 120% | cell viability (NOMO1 [5]; [14]): 109% | cell viability (NOMO1 [5]; [15]): 94.3% | cell viability (NOMO1 [5]; [16]): 109% | cell viability (NOMO1 [5]; [17]): 116% | cell viability (NOMO1 [5]; [18]): 114% | cell viability (NOMO1 [5]; [19]): 113% | cell viability (NOMO1 [5]; [20]): 122% | cell viability (NOMO1 [5]; [21]): 118% | cell viability (NOMO1 [5]; [22]): 121% | cell viability (NOMO1 [5]; [23]): 114% | cell viability (NOMO1 [5]; [24]): 122% | cell viability (NOMO1 [5]; [25]): 104% | cell viability (NOMO1 [5]; [26]): 105% | cell viability (NOMO1 [5]; [27]): 110% | cell viability (NOMO1 [5]; [28]): 100% | cell viability (NOMO1 [5]; [30]): 118% | cell viability (NOMO1 [5]; [31]): 122% | cell viability (NOMO1 [5]; [32]): 118% | cell viability (NOMO1 [5]; [33]): 122% | cell viability (NOMO1 [5]; [34]): 117% | cell viability (NOMO1 [5]; [35]): 128% | cell viability (NOMO1 [5]; [36]): 119% | cell viability (NOMO1 [5]; [37]): 109% | cell viability (NOMO1 [5]; [38]): 116% | cell viability (NOMO1 [5]; [39]): 113% | cell viability (NOMO1 [5]; [40]): 107% | cell viability (P12-Ichikawa [6]; [7]): 117% | cell viability (P12-Ichikawa [6]; [8]): 117% | cell viability (P12-Ichikawa [6]; [9]): 113% | cell viability (P12-Ichikawa [6]; [10]): 120% | cell viability (P12-Ichikawa [6]; [11]): 122% | cell viability (P12-Ichikawa [6]; [12]): 114% | cell viability (P12-Ichikawa [6]; [13]): 112% | cell viability (P12-Ichikawa [6]; [14]): 106% | cell viability (P12-Ichikawa [6]; [15]): 103% | cell viability (P12-Ichikawa [6]; [16]): 98.7% | cell viability (P12-Ichikawa [6]; [17]): 103% | cell viability (P12-Ichikawa [6]; [18]): 118% | cell viability (P12-Ichikawa [6]; [19]): 120% | cell viability (P12-Ichikawa [6]; [20]): 119% | cell viability (P12-Ichikawa [6]; [21]): 112% | cell viability (P12-Ichikawa [6]; [22]): 119% | cell viability (P12-Ichikawa [6]; [23]): 109% | cell viability (P12-Ichikawa [6]; [24]): 110% | cell viability (P12-Ichikawa [6]; [25]): 118% | cell viability (P12-Ichikawa [6]; [26]): 111% | cell viability (P12-Ichikawa [6]; [27]): 113% | cell viability (P12-Ichikawa [6]; [28]): 101% | cell viability (P12-Ichikawa [6]; [30]): 117% | cell viability (P12-Ichikawa [6]; [31]): 105% | cell viability (P12-Ichikawa [6]; [32]): 120% | cell viability (P12-Ichikawa [6]; [33]): 108% | cell viability (P12-Ichikawa [6]; [34]): 114% | cell viability (P12-Ichikawa [6]; [35]): 110% | cell viability (P12-Ichikawa [6]; [36]): 106% | cell viability (P12-Ichikawa [6]; [37]): 110% | cell viability (P12-Ichikawa [6]; [38]): 100% | cell viability (P12-Ichikawa [6]; [39]): 112% | cell viability (P12-Ichikawa [6]; [40]): 97.4% | cell viability (SEM cells [1]; [7]): 131% | cell viability (SEM cells [1]; [8]): 81.5% | cell viability (SEM cells [1]; [9]): 115% | cell viability (SEM cells [1]; [10]): 122% | cell viability (SEM cells [1]; [11]): 132% | cell viability (SEM cells [1]; [12]): 32.7% | cell viability (SEM cells [1]; [13]): 128% | cell viability (SEM cells [1]; [14]): 84.8% | cell viability (SEM cells [1]; [15]): 16.3% | cell viability (SEM cells [1]; [16]): 122% | cell viability (SEM cells [1]; [17]): 109% | cell viability (SEM cells [1]; [18]): 111% | cell viability (SEM cells [1]; [19]): 73.4% | cell viability (SEM cells [1]; [20]): 140% | cell viability (SEM cells [1]; [21]): 126% | cell viability (SEM cells [1]; [22]): 134% | cell viability (SEM cells [1]; [23]): 23.1% | cell viability (SEM cells [1]; [24]): 120% | cell viability (SEM cells [1]; [25]): 53.1% | cell viability (SEM cells [1]; [26]): 12.9% | cell viability (SEM cells [1]; [27]): 114% | cell viability (SEM cells [1]; [28]): 112% | cell viability (SEM cells [1]; [30]): 111% | cell viability (SEM cells [1]; [31]): 56% | cell viability (SEM cells [1]; [32]): 136% | cell viability (SEM cells [1]; [33]): 138% | cell viability (SEM cells [1]; [34]): 115% | cell viability (SEM cells [1]; [35]): 28.8% | cell viability (SEM cells [1]; [36]): 111% | cell viability (SEM cells [1]; [37]): 60.4% | cell viability (SEM cells [1]; [38]): 10.3% | cell viability (SEM cells [1]; [39]): 100% | cell viability (SEM cells [1]; [40]): 104% | AUC of viability dose-response curve (NOMO1 [2]; HPLM + 10% dialyzed FBS): 467 | AUC of viability dose-response curve (NOMO1 [2]; RPMI 5 mM glucose + 10% FBS): 459 | AUC of viability dose-response curve (NOMO1 [2]; [29]): 463 | AUC of viability dose-response curve (P12-Ichikawa [4]; HPLM + 10% dialyzed FBS): 454 | AUC of viability dose-response curve (P12-Ichikawa [4]; RPMI 5 mM glucose + 10% FBS): 453 | AUC of viability dose-response curve (P12-Ichikawa [4]; [29]): 452
